Results taken from ChEMBL document CHEMBL3885881, “DrugMatrix”.

Organism: Rattus norvegicus
Assay: DrugMatrix - Regimen: Daily Repeat
Type: toxicity, organism-based, Sprague-Dawley
Set-up: regimen Daily Repeat, gender Male, age 6-8 weeks
Conditions: in vivo, po, route oral GAVAGE, vehicle .5 % CMC; for ABSOLUTE BASOPHIL / ABSOLUTE EOSINOPHIL / ABSOLUTE LYMPHOCYTE / ABSOLUTE MONOCYTE / ABSOLUTE SEGMENTED NEUTROPHIL / BASOPHIL / EOSINOPHIL / ERYTHROCYTE COUNT / HEMATOCRIT / HEMOGLOBIN / LEUKOCYTE COUNT / LYMPHOCYTE / MEAN CORPUSCULAR HEMOGLOBIN / MEAN CORPUSCULAR HEMOGLOBIN CONCENTRATION / MEAN CORPUSCULAR VOLUME / MONOCYTE / NEUTROPHIL / NUCLEATED RED BLOOD CELLS / PLATELET COUNT: tissue Blood; for ALANINE AMINOTRANSFERASE / ALBUMIN / ALKALINE PHOSPHATASE / ASPARTATE AMINOTRANSFERASE / BLOOD UREA NITROGEN / CARBON DIOXIDE / CHLORIDE / CHOLESTEROL / CREATINE PHOSPHOKINASE / CREATININE / GLUCOSE / LACTATE DEHYDROGENASE / LIPASE / PHOSPHORUS / POTASSIUM / SODIUM / TOTAL BILIRUBIN / TOTAL PROTEIN / URIC ACID: tissue Plasma
[1] = 100 mg/kg, 120 h, dose level Low, time 5 day
[2] = 1500 mg/kg, 72 h, dose level High, time 3 day
[3] = 1500 mg/kg, 120 h, dose level High, time 5 day

## CO[C@H]1/C=C/O[C@@]2(C)Oc3c(C)c(O)c4c(c3C2=O)C2=NC3(CCN(CC(C)C)CC3)NC2=C(NC(=O)/C(C)=C\C=C\[C@H](C)[C@H](O)[C@@H](C)[C@@H](O)[C@@H](C)[C@H](OC(C)=O)[C@@H]1C)C4=O [RIFABUTIN]
[1]
  ABSOLUTE BASOPHIL: 0 CELLS/uL
  ABSOLUTE EOSINOPHIL: 0 CELLS/uL
  ABSOLUTE LYMPHOCYTE: 10855 CELLS/uL
  ABSOLUTE MONOCYTE: 0 CELLS/uL
  ABSOLUTE SEGMENTED NEUTROPHIL: 1111.67 CELLS/uL
  BASOPHIL: 0%
  EOSINOPHIL: 0%
  ERYTHROCYTE COUNT: 5.53 x10E6/uL
  HEMATOCRIT: 35%
  HEMOGLOBIN: 13.9 G/DL
  LEUKOCYTE COUNT: 11.97 x10E3/uL
  LYMPHOCYTE: 90.67%
  MEAN CORPUSCULAR HEMOGLOBIN: 25.2 pg
  MEAN CORPUSCULAR HEMOGLOBIN CONCENTRATION: 39.77 G/DL
  MEAN CORPUSCULAR VOLUME: 63.37 fL
  MONOCYTE: 0%
  NEUTROPHIL: 9.33%
  NUCLEATED RED BLOOD CELLS: 0 /100WBC
  PLATELET COUNT: 1189 x10E3/uL
  ALANINE AMINOTRANSFERASE: 54.33 u/L
  ALBUMIN: 4.2 G/DL
  ALKALINE PHOSPHATASE: 319 u/L
  ASPARTATE AMINOTRANSFERASE: 78.33 u/L
  BLOOD UREA NITROGEN: 16.67 mg/dL
  CARBON DIOXIDE: 24.67 mmol/L
  CHLORIDE: 102.33 MEQ/L
  CHOLESTEROL: 81.33 mg/dL
  CREATINE PHOSPHOKINASE: 352 u/L
  CREATININE: 0.18 mg/dL
  GLUCOSE: 154.67 mg/dL
  LACTATE DEHYDROGENASE: 179 u/L
  LIPASE: 9.33 u/L
  PHOSPHORUS: 12.83 mg/dL
  POTASSIUM: 6.38 MEQ/L
  SODIUM: 144.7 MEQ/L
  TOTAL BILIRUBIN: 0.23 mg/dL
  TOTAL PROTEIN: 6 G/DL
  URIC ACID: 1.6 mg/dL
[2]
  ABSOLUTE BASOPHIL: 0 CELLS/uL
  ABSOLUTE EOSINOPHIL: 0 CELLS/uL
  ABSOLUTE LYMPHOCYTE: 11965.67 CELLS/uL
  ABSOLUTE MONOCYTE: 420.67 CELLS/uL
  ABSOLUTE SEGMENTED NEUTROPHIL: 2847 CELLS/uL
  BASOPHIL: 0%
  EOSINOPHIL: 0%
  ERYTHROCYTE COUNT: 6.58 x10E6/uL
  HEMATOCRIT: 40.53%
  HEMOGLOBIN: 15.87 G/DL
  LEUKOCYTE COUNT: 15.23 x10E3/uL
  LYMPHOCYTE: 77.33%
  MEAN CORPUSCULAR HEMOGLOBIN: 24.13 pg
  MEAN CORPUSCULAR HEMOGLOBIN CONCENTRATION: 39.17 G/DL
  MEAN CORPUSCULAR VOLUME: 61.6 fL
  MONOCYTE: 2.67%
  NEUTROPHIL: 20%
  NUCLEATED RED BLOOD CELLS: 0 /100WBC
  PLATELET COUNT: 1375.67 x10E3/uL
  ALANINE AMINOTRANSFERASE: 80 u/L
  ALBUMIN: 4.43 G/DL
  ALKALINE PHOSPHATASE: 350.33 u/L
  ASPARTATE AMINOTRANSFERASE: 113.67 u/L
  BLOOD UREA NITROGEN: 14 mg/dL
  CARBON DIOXIDE: 31 mmol/L
  CHLORIDE: 96.33 MEQ/L
  CHOLESTEROL: 148.67 mg/dL
  CREATINE PHOSPHOKINASE: 217 u/L
  CREATININE: 0.21 mg/dL
  GLUCOSE: 160 mg/dL
  LACTATE DEHYDROGENASE: 259 u/L
  LIPASE: 11 u/L
  PHOSPHORUS: 12.37 mg/dL
  POTASSIUM: 5.97 MEQ/L
  SODIUM: 145.43 MEQ/L
  TOTAL BILIRUBIN: 0.47 mg/dL
  TOTAL PROTEIN: 6.3 G/DL
  URIC ACID: 1.7 mg/dL
[3]
  ABSOLUTE BASOPHIL: 0 CELLS/uL
  ABSOLUTE EOSINOPHIL: 0 CELLS/uL
  ABSOLUTE LYMPHOCYTE: 11388 CELLS/uL
  ABSOLUTE MONOCYTE: 273 CELLS/uL
  ABSOLUTE SEGMENTED NEUTROPHIL: 2639 CELLS/uL
  BASOPHIL: 0%
  EOSINOPHIL: 0%
  ERYTHROCYTE COUNT: 6.24 x10E6/uL
  HEMATOCRIT: 38.2%
  HEMOGLOBIN: 15.25 G/DL
  LEUKOCYTE COUNT: 14.3 x10E3/uL
  LYMPHOCYTE: 79%
  MEAN CORPUSCULAR HEMOGLOBIN: 24.5 pg
  MEAN CORPUSCULAR HEMOGLOBIN CONCENTRATION: 39.9 G/DL
  MEAN CORPUSCULAR VOLUME: 61.45 fL
  MONOCYTE: 2%
  NEUTROPHIL: 19%
  NUCLEATED RED BLOOD CELLS: 0 /100WBC
  PLATELET COUNT: 1196.5 x10E3/uL
  ALANINE AMINOTRANSFERASE: 114 u/L
  ALBUMIN: 3.85 G/DL
  ALKALINE PHOSPHATASE: 310.5 u/L
  ASPARTATE AMINOTRANSFERASE: 198.5 u/L
  BLOOD UREA NITROGEN: 19 mg/dL
  CARBON DIOXIDE: 24.5 mmol/L
  CHLORIDE: 97.5 MEQ/L
  CHOLESTEROL: 104 mg/dL
  CREATINE PHOSPHOKINASE: 397.5 u/L
  CREATININE: 0.18 mg/dL
  GLUCOSE: 120.5 mg/dL
  LACTATE DEHYDROGENASE: 645 u/L
  LIPASE: 12.5 u/L
  PHOSPHORUS: 11 mg/dL
  POTASSIUM: 5.77 MEQ/L
  SODIUM: 142.7 MEQ/L
  TOTAL BILIRUBIN: 0.6 mg/dL
  TOTAL PROTEIN: 5.65 G/DL
  URIC ACID: 1.35 mg/dL
